Assays:
Assay in all cases: relative viability (nuclei count vs DMSO), 5 days (fraction); higher = more cells survive
Bortezomib + Trametinib = compound: CC(C)C[C@H](NC(=O)[C@H](Cc1ccccc1)NC(=O)c1cnccn1)B(O)O [Bortezomib] + CC(=O)Nc1cccc(-n2c(=O)n(C3CC3)c(=O)c3c(Nc4ccc(I)cc4F)n(C)c(=O)c(C)c32)c1 [Trametinib] (partner 0.02 µM)
In short: (§1)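 Lung cancer cell lines were pin-tool dosed in 1536-well plates on the day after seeding, with either a lone drug or a fixed anchor-drug dose plus five library-drug doses (not always all listed) in √10 steps. Nuclei were counted on 4× images after 5 days. Relative viability is the ratio of treated-well to vehicle-well nuclei counts, with each value a median of duplicate plates.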

[1] = compound: CC1=CC(=NN1)NC2=CC(=NC(=N2)/C=C/C3=CC=CC=C3)N4CCN(CC4)C + Cc1nc(NC(=O)N2CCC[C@H]2C(N)=O)sc1-c1ccnc(C(C)(C)C(F)(F)F)c1 [Alpelisib] (partner 2 µM)
In short: as §1

[2] = compound: CC1=CC(=NN1)NC2=CC(=NC(=N2)/C=C/C3=CC=CC=C3)N4CCN(CC4)C + CC1(C)CCC(c2ccc(Cl)cc2)=C(CN2CCN(c3ccc(C(=O)NS(=O)(=O)c4ccc(N[C@H](CCN5CCOCC5)CSc5ccccc5)c(S(=O)(=O)C(F)(F)F)c4)cc3)CC2)C1 [Navitoclax] (partner 0.5 µM)
In short: as §1

Obatoclax + Navitoclax = compound: COC1=CC(c2cc3ccccc3[nH]2)=N/C1=C\c1[nH]c(C)cc1C [Obatoclax] + CC1(C)CCC(c2ccc(Cl)cc2)=C(CN2CCN(c3ccc(C(=O)NS(=O)(=O)c4ccc(N[C@H](CCN5CCOCC5)CSc5ccccc5)c(S(=O)(=O)C(F)(F)F)c4)cc3)CC2)C1 [Navitoclax] (partner 0.5 µM)
In short: as §1

## NCI-H661
Bortezomib + Trametinib; first compound 0.0002 µM
  relative viability: 0.526
Bortezomib + Trametinib; first compound 0.000632 µM
  relative viability: 0.493
Bortezomib + Trametinib; first compound 0.002 µM
  relative viability: 0.62
Bortezomib + Trametinib; first compound 0.006325 µM
  relative viability: 0.364
Bortezomib + Trametinib; first compound 0.02 µM
  relative viability: 0.207
[1]; first compound 0.08 µM
  relative viability: 0.578
[1]; first compound 0.253 µM
  relative viability: 0.749
[1]; first compound 0.8 µM
  relative viability: 0.94
[1]; first compound 2.53 µM
  relative viability: 0.455
[1]; first compound 8 µM
  relative viability: 0.197

## NCI-H1650
Bortezomib + Trametinib; first compound 0.0002 µM
  relative viability: 0.627
Bortezomib + Trametinib; first compound 0.000632 µM
  relative viability: 0.572
Bortezomib + Trametinib; first compound 0.002 µM
  relative viability: 0.128
Bortezomib + Trametinib; first compound 0.006325 µM
  relative viability: 0.132
Bortezomib + Trametinib; first compound 0.02 µM
  relative viability: 0.129
[2]; first compound 0.08 µM
  relative viability: 1.28
[2]; first compound 0.253 µM
  relative viability: 1.43
[2]; first compound 0.8 µM
  relative viability: 0.902
[2]; first compound 2.53 µM
  relative viability: 0.358
[2]; first compound 8 µM
  relative viability: 0.107
Obatoclax + Navitoclax; first compound 0.01 µM
  relative viability: 1.03
Obatoclax + Navitoclax; first compound 0.03162 µM
  relative viability: 1.08
Obatoclax + Navitoclax; first compound 0.1 µM
  relative viability: 1.18
Obatoclax + Navitoclax; first compound 0.3162 µM
  relative viability: 0.986
Obatoclax + Navitoclax; first compound 1 µM
  relative viability: 0.239

## Calu-6
[2]; first compound 0.08 µM
  relative viability: 0.765
[2]; first compound 0.253 µM
  relative viability: 0.623
[2]; first compound 0.8 µM
  relative viability: 0.523
[2]; first compound 2.53 µM
  relative viability: 0.0678
[2]; first compound 8 µM
  relative viability: 0.0602
[1]; first compound 0.08 µM
  relative viability: 1.01
[1]; first compound 0.253 µM
  relative viability: 0.973
[1]; first compound 0.8 µM
  relative viability: 0.661
[1]; first compound 2.53 µM
  relative viability: 0.134
[1]; first compound 8 µM
  relative viability: 0.117
Obatoclax + Navitoclax; first compound 0.01 µM
  relative viability: 0.874
Obatoclax + Navitoclax; first compound 0.03162 µM
  relative viability: 0.977
Obatoclax + Navitoclax; first compound 0.1 µM
  relative viability: 0.852
Obatoclax + Navitoclax; first compound 0.3162 µM
  relative viability: 0.506
Obatoclax + Navitoclax; first compound 1 µM
  relative viability: 0.0891

## LCLC-103H
Bortezomib + Trametinib; first compound 0.0002 µM
  relative viability: 0.661
Bortezomib + Trametinib; first compound 0.000632 µM
  relative viability: 0.687
Bortezomib + Trametinib; first compound 0.002 µM
  relative viability: 0.589
Bortezomib + Trametinib; first compound 0.006325 µM
  relative viability: 0.336
Bortezomib + Trametinib; first compound 0.02 µM
  relative viability: 0.256
[1]; first compound 0.08 µM
  relative viability: 0.917
[1]; first compound 0.253 µM
  relative viability: 1.01
[1]; first compound 0.8 µM
  relative viability: 1.07
[1]; first compound 2.53 µM
  relative viability: 0.804
[1]; first compound 8 µM
  relative viability: 0.441

## NCI-H2342
Bortezomib + Trametinib; first compound 0.0002 µM
  relative viability: 0.869
Bortezomib + Trametinib; first compound 0.000632 µM
  relative viability: 0.965
Bortezomib + Trametinib; first compound 0.002 µM
  relative viability: 0.815
Bortezomib + Trametinib; first compound 0.006325 µM
  relative viability: 0.924
Bortezomib + Trametinib; first compound 0.02 µM
  relative viability: 0.386

## NCI-H1299
[2]; first compound 0.08 µM
  relative viability: 1.04
[2]; first compound 0.253 µM
  relative viability: 1.13
[2]; first compound 0.8 µM
  relative viability: 1.03
[2]; first compound 2.53 µM
  relative viability: 0.863
[2]; first compound 8 µM
  relative viability: 0.243
[1]; first compound 0.08 µM
  relative viability: 1.06
[1]; first compound 0.253 µM
  relative viability: 1.08
[1]; first compound 0.8 µM
  relative viability: 1.04
[1]; first compound 2.53 µM
  relative viability: 1.1
[1]; first compound 8 µM
  relative viability: 0.605
Obatoclax + Navitoclax; first compound 0.01 µM
  relative viability: 1.04
Obatoclax + Navitoclax; first compound 0.03162 µM
  relative viability: 1.07
Obatoclax + Navitoclax; first compound 0.1 µM
  relative viability: 1.04
Obatoclax + Navitoclax; first compound 0.3162 µM
  relative viability: 1.07
Obatoclax + Navitoclax; first compound 1 µM
  relative viability: 0.997

## ChaGo-K-1
Bortezomib + Trametinib; first compound 0.0002 µM
  relative viability: 0.882
Bortezomib + Trametinib; first compound 0.000632 µM
  relative viability: 0.89
Bortezomib + Trametinib; first compound 0.002 µM
  relative viability: 0.85
Bortezomib + Trametinib; first compound 0.006325 µM
  relative viability: 0.279
Bortezomib + Trametinib; first compound 0.02 µM
  relative viability: 0.144
[2]; first compound 0.08 µM
  relative viability: 0.893
[2]; first compound 0.253 µM
  relative viability: 1.12
[2]; first compound 0.8 µM
  relative viability: 1.24
[2]; first compound 2.53 µM
  relative viability: 0.298
[2]; first compound 8 µM
  relative viability: 0.272
Obatoclax + Navitoclax; first compound 0.01 µM
  relative viability: 0.956
Obatoclax + Navitoclax; first compound 0.03162 µM
  relative viability: 0.669
Obatoclax + Navitoclax; first compound 0.3162 µM
  relative viability: 0.955
Obatoclax + Navitoclax; first compound 1 µM
  relative viability: 1.32

## NCI-H1703
[2]; first compound 0.08 µM
  relative viability: 0.929
[2]; first compound 0.253 µM
  relative viability: 0.965
[2]; first compound 0.8 µM
  relative viability: 0.283
[2]; first compound 2.53 µM
  relative viability: 0.134
[2]; first compound 8 µM
  relative viability: 0.108
[1]; first compound 0.08 µM
  relative viability: 0.302
[1]; first compound 0.253 µM
  relative viability: 0.32
[1]; first compound 0.8 µM
  relative viability: 0.205
[1]; first compound 2.53 µM
  relative viability: 0.128
[1]; first compound 8 µM
  relative viability: 0.0994
Obatoclax + Navitoclax; first compound 0.01 µM
  relative viability: 1.27
Obatoclax + Navitoclax; first compound 0.03162 µM
  relative viability: 1.34
Obatoclax + Navitoclax; first compound 0.1 µM
  relative viability: 0.955
Obatoclax + Navitoclax; first compound 0.3162 µM
  relative viability: 0.385
Obatoclax + Navitoclax; first compound 1 µM
  relative viability: 0.292

## NCI-H522
Bortezomib + Trametinib; first compound 0.0002 µM
  relative viability: 0.753
Bortezomib + Trametinib; first compound 0.000632 µM
  relative viability: 0.821
Bortezomib + Trametinib; first compound 0.002 µM
  relative viability: 0.796
Bortezomib + Trametinib; first compound 0.006325 µM
  relative viability: 0.387
Bortezomib + Trametinib; first compound 0.02 µM
  relative viability: 0.331

## ABC-1
[1]; first compound 0.08 µM
  relative viability: 1.01
[1]; first compound 0.253 µM
  relative viability: 1.09
[1]; first compound 0.8 µM
  relative viability: 1.02
[1]; first compound 2.53 µM
  relative viability: 0.855
[1]; first compound 8 µM
  relative viability: 0.22

## IA-LM
[2]; first compound 0.08 µM
  relative viability: 0.733
[2]; first compound 0.253 µM
  relative viability: 0.76
[2]; first compound 0.8 µM
  relative viability: 1.12
[2]; first compound 2.53 µM
  relative viability: 0.669
[2]; first compound 8 µM
  relative viability: 0.148
[1]; first compound 0.08 µM
  relative viability: 0.737
[1]; first compound 0.253 µM
  relative viability: 0.799
[1]; first compound 0.8 µM
  relative viability: 0.782
[1]; first compound 2.53 µM
  relative viability: 0.461
[1]; first compound 8 µM
  relative viability: 0.221
Obatoclax + Navitoclax; first compound 0.01 µM
  relative viability: 0.852
Obatoclax + Navitoclax; first compound 0.03162 µM
  relative viability: 0.855
Obatoclax + Navitoclax; first compound 0.1 µM
  relative viability: 0.666
Obatoclax + Navitoclax; first compound 0.3162 µM
  relative viability: 0.065
Obatoclax + Navitoclax; first compound 1 µM
  relative viability: 0.0608

## NCI-H1563
[1]; first compound 0.08 µM
  relative viability: 0.896
[1]; first compound 0.253 µM
  relative viability: 0.893
[1]; first compound 0.8 µM
  relative viability: 0.782
[1]; first compound 2.53 µM
  relative viability: 0.555
[1]; first compound 8 µM
  relative viability: 0.392

## NCI-H358
Bortezomib + Trametinib; first compound 0.0002 µM
  relative viability: 0.12
Bortezomib + Trametinib; first compound 0.000632 µM
  relative viability: 0.121
Bortezomib + Trametinib; first compound 0.002 µM
  relative viability: 0.133
Bortezomib + Trametinib; first compound 0.006325 µM
  relative viability: 0.094
Bortezomib + Trametinib; first compound 0.02 µM
  relative viability: 0.0906
[1]; first compound 0.08 µM
  relative viability: 0.934
[1]; first compound 0.253 µM
  relative viability: 0.821
[1]; first compound 0.8 µM
  relative viability: 0.539
[1]; first compound 2.53 µM
  relative viability: 0.142
[1]; first compound 8 µM
  relative viability: 0.153

## NCI-H1648
Bortezomib + Trametinib; first compound 0.0002 µM
  relative viability: 0.465
Bortezomib + Trametinib; first compound 0.000632 µM
  relative viability: 0.594
Bortezomib + Trametinib; first compound 0.002 µM
  relative viability: 0.371
Bortezomib + Trametinib; first compound 0.006325 µM
  relative viability: 0.263
Bortezomib + Trametinib; first compound 0.02 µM
  relative viability: 0.389
